Data on 2 compounds can be found in ChEMBL document CHEMBL5303765, “Data for DCP probe BAY-7081” (2023).

Test [1] deals with Mitogen-activated protein kinase 14 (Homo sapiens) (UniProt Q16539). Nature of the test: MAPK14 SGC Tm panel (DSF). To be noted: for ΔTm: Compound concentration 10.0 uM.
Test [2] deals with T1, Serine/threonine-protein kinase DCLK1 (Homo sapiens) (UniProt O15075).
T1 sequence (whole entry): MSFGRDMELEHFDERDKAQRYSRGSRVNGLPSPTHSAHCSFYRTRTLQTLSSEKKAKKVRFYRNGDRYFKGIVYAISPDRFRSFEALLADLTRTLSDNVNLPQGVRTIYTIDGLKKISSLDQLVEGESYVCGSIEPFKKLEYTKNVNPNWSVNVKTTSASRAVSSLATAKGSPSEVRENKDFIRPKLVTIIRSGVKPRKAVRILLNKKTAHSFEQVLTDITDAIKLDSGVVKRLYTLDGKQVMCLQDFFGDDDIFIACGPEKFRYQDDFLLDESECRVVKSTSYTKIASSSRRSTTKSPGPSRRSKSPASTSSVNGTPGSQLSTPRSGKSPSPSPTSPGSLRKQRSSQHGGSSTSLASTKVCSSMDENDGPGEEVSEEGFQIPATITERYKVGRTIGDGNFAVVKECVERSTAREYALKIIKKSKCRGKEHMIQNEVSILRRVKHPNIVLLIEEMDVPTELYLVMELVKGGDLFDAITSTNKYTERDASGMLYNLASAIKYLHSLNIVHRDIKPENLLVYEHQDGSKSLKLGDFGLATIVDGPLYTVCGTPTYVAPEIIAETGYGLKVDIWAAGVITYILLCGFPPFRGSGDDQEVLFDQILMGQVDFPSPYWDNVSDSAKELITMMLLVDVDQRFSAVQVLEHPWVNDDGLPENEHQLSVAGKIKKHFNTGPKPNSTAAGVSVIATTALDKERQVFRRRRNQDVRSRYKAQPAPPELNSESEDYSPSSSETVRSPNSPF
In words: DCAMKL1 SGC Tm panel (DSF). To be noted: for ΔTm: Compound concentration 10.0 uM.

In test [3] the target is SRSF protein kinase 1 (Homo sapiens) (UniProt Q96SB4). In words: SRPK1 SGC Tm panel (DSF). As to conditions: for ΔTm: Compound concentration 10.0 uM.
Sequence of SRSF protein kinase 1 (Homo sapiens) (Q96SB4 whole entry): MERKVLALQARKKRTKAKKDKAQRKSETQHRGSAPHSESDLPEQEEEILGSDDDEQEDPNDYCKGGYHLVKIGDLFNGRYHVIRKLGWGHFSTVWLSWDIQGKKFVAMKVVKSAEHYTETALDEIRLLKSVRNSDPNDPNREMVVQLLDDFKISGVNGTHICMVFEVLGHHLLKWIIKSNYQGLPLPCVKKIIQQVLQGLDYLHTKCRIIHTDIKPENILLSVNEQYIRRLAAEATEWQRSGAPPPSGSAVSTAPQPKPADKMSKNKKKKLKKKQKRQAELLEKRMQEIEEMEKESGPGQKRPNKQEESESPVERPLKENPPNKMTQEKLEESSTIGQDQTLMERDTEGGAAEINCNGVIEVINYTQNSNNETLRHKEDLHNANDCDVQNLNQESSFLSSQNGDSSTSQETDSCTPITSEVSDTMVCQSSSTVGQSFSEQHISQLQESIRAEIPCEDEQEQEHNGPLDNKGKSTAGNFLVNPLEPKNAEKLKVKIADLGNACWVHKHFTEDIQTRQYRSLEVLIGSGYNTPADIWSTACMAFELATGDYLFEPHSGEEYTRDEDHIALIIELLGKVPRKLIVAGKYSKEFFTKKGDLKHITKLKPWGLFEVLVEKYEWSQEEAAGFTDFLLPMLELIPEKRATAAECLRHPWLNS
For test [4], the target named is RAC-gamma serine/threonine-protein kinase (Homo sapiens) (UniProt Q9Y243). Nature of the test: AKT3 SGC Tm panel (DSF). As to conditions: for ΔTm: Compound concentration 10.0 uM.
Sequence of RAC-gamma serine/threonine-protein kinase (Homo sapiens) (Q9Y243 whole entry): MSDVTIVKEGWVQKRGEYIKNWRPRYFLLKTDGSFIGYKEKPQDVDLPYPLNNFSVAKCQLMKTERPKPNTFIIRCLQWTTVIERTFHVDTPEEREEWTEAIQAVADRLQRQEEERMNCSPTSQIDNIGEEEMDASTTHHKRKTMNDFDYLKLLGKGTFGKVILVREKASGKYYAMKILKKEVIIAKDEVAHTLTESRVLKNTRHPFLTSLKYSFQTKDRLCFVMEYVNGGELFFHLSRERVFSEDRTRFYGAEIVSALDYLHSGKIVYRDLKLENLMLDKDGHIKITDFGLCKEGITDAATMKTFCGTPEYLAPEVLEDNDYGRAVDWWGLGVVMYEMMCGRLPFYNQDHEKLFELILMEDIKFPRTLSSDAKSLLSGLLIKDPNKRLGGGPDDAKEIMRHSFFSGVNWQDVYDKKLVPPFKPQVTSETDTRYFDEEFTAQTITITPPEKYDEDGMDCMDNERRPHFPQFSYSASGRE
Test [5] concerns the target Ribosomal protein S6 kinase alpha-1 (Homo sapiens) (UniProt Q15418). In words: RPS6KA1 SGC Tm panel (DSF). As to conditions: for ΔTm: Compound concentration 10.0 uM.
In test [6] the target is Beta-2 adrenergic receptor (Homo sapiens) (UniProt P07550). As to conditions: Compound concentration 10.0 uM.
Sequence of Beta-2 adrenergic receptor (Homo sapiens) (P07550 whole entry, looked up): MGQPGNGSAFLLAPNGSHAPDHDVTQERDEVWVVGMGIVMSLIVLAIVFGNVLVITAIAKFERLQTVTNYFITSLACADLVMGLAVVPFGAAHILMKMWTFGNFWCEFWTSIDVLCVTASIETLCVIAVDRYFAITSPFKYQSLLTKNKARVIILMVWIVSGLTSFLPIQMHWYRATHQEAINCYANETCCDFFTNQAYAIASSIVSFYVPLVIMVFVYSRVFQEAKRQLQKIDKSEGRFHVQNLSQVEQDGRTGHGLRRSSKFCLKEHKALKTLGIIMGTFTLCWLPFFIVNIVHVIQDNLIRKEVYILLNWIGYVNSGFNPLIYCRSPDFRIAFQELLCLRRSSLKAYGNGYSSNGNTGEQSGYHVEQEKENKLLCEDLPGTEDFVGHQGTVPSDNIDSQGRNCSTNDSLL
Test [7] addresses T2, Serine/threonine-protein kinase Nek2 (Homo sapiens) (UniProt P51955).
T2 sequence (whole entry): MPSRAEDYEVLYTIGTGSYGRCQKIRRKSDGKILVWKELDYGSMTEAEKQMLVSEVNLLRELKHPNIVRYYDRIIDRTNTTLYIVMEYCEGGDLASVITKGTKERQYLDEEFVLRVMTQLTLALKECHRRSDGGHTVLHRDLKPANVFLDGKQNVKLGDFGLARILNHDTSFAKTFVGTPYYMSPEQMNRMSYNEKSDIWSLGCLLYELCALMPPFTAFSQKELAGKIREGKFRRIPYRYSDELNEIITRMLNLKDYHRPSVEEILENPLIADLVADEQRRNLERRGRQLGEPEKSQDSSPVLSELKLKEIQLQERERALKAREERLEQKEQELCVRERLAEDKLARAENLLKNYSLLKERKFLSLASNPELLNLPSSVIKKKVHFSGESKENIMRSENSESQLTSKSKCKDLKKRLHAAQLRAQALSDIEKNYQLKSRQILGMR
Nature of the test: NEK2 SGC Tm panel (DSF). As to conditions: for ΔTm: Compound concentration 10.0 uM.

The target of test [8] is Serine/threonine-protein kinase 10 (Homo sapiens) (UniProt O94804). Nature of the test: STK10 SGC Tm panel (DSF). As to conditions: for ΔTm: Compound concentration 10.0 uM.
Sequence of Serine/threonine-protein kinase 10 (Homo sapiens) (O94804 whole entry, looked up): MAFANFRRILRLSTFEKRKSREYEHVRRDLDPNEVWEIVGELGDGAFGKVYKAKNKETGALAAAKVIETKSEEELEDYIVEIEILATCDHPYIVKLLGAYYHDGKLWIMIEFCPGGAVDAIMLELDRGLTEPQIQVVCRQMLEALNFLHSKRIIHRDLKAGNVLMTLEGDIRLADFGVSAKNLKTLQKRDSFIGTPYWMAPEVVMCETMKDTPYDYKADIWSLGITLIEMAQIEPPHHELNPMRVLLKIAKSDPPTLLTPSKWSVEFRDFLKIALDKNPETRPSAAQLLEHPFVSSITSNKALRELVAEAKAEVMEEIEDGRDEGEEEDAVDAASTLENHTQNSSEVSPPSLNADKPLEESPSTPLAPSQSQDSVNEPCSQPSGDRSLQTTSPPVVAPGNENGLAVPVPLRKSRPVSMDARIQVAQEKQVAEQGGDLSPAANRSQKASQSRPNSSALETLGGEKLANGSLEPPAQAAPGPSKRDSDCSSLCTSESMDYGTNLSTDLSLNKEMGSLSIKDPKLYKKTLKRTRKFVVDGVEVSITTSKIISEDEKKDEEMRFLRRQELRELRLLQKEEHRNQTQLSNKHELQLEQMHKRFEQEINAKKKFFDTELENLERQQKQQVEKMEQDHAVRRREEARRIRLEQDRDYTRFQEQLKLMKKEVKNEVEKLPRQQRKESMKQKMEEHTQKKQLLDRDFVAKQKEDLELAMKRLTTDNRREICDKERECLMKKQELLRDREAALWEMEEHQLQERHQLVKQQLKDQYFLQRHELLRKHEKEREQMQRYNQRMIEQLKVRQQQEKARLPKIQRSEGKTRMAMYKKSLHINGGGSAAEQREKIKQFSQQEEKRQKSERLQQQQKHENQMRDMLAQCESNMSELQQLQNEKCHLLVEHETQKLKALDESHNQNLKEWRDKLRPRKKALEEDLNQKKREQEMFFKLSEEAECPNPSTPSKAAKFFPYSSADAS
The target of test [9] is T3, Serine/threonine-protein kinase VRK1 (Homo sapiens) (UniProt Q99986).
T3 sequence (whole entry): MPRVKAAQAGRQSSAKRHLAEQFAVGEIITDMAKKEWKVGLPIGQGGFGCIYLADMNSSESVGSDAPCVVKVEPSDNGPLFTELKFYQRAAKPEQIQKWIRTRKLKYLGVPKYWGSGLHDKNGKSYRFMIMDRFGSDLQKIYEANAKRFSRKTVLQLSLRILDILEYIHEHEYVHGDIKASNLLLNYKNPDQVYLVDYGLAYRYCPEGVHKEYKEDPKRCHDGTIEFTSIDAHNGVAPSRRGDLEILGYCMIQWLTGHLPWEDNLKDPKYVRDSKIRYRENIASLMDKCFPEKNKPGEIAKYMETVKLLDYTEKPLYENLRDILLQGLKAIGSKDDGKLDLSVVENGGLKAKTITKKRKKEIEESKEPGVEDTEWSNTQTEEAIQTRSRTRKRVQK
Nature of the test: VRK1 SGC Tm panel (DSF). As to conditions: for ΔTm: Compound concentration 10.0 uM.

The target of test [10] is T4, Serine/threonine-protein kinase 17B (Homo sapiens) (UniProt O94768).
T4 sequence (whole entry): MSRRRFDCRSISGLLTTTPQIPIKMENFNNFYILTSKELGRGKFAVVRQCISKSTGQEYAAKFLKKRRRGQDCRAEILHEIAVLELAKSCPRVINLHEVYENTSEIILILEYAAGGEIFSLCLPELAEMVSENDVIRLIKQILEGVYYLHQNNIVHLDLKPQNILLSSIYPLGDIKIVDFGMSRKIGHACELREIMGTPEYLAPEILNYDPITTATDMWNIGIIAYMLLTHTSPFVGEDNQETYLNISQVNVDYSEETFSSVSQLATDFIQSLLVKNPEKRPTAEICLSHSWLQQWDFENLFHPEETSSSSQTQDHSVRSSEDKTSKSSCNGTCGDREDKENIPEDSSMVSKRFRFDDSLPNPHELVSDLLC
In words: STK17B SGC Tm panel (DSF). As to conditions: for ΔTm: Compound concentration 10.0 uM.

Test [11] deals with T5, 5-hydroxytryptamine receptor 3A (Homo sapiens) (UniProt P46098).
T5 sequence (whole entry): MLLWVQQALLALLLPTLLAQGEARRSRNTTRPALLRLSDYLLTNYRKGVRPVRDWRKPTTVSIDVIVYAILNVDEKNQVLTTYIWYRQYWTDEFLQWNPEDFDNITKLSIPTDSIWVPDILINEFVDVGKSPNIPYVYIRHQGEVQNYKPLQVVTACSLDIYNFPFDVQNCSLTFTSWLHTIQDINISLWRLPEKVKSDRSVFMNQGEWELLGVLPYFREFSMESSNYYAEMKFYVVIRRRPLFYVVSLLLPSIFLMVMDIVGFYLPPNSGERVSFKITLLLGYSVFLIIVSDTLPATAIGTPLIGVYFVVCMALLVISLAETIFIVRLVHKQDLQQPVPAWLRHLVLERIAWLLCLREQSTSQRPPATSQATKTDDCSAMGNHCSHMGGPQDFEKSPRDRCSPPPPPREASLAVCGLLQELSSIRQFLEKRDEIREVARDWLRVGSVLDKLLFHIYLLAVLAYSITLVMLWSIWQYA
As to conditions: Compound concentration 10.0 uM.

Sequence of Mitogen-activated protein kinase 14 (Homo sapiens) (Q16539 whole entry): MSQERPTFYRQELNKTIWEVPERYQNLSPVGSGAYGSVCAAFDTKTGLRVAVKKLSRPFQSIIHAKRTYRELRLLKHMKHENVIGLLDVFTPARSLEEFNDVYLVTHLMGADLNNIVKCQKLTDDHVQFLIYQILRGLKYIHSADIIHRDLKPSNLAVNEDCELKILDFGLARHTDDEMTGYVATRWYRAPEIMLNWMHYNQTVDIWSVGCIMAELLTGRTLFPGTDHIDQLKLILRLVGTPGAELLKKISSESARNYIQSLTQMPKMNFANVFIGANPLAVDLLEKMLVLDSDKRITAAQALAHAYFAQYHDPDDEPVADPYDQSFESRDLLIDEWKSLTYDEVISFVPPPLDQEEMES
Sequence of Ribosomal protein S6 kinase alpha-1 (Homo sapiens) (Q15418 whole entry): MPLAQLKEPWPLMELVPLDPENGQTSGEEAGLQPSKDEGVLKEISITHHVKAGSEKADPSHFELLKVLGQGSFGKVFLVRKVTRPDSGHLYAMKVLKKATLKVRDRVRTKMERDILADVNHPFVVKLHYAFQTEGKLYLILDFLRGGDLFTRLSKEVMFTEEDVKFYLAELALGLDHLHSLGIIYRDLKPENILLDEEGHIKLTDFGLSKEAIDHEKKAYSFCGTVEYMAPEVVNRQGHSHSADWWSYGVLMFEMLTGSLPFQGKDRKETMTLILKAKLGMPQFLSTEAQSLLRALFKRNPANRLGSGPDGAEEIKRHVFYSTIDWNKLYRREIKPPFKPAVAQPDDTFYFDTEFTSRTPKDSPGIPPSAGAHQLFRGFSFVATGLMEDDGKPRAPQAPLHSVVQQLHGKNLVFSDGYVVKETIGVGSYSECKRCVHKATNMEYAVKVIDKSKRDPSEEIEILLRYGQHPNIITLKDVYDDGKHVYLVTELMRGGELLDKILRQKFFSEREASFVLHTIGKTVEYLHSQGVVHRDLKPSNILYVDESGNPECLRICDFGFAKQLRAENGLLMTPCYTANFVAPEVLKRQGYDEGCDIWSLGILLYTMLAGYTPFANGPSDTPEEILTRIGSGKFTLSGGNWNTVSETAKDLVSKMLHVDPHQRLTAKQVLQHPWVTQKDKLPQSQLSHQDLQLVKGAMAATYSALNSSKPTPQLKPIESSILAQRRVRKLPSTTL

Usually inhibition stands for the relative decrease from the control value, in per cent. As for `CCC[C@@H]1CNCc2c1[nH]c(=O)c(C#N)c2N1CCC2(CC1)CC2`, the delta Tm Staurosporine positive control came out at 0.178 in test [1]; 12.7 in test [2]; 7.17 in [3]; 7.15 in test [4]; 4.78 in test [5]; 4.25 in test [7]. In addition, the delta Tm Staurosporine positive control in test [8] came to 22.2; in [9] it was 2.35; in [10], 10.6. In addition, the ΔTm was -0.46 in test [1]; -1.16 in test [2]; -0.188 in test [3]; -0.39 in [4]; -0.0442 in test [5]; -1.52 in test [7]. The ΔTm in test [8] is -2.3; in test [9] it was -0.315; in test [10], -0.79. Moreover, the inhibition in test [6] was -6.78%; in test [11], 5.44%.
Turning to `CCC[C@H]1CNCc2c1[nH]c(=O)c(C#N)c2N1CCC2(CC1)CC2`, the delta Tm Staurosporine positive control in test [1] is 0.178; in test [2] it was 12.7; in test [3], 7.17; in [4], 7.15; in test [5] it was 4.78; in test [7], 4.25. Also, the delta Tm Staurosporine positive control in [8] turned out to be 22.2; in [9] it was 2.35; in [10], 10.6. The ΔTm was -0.473 in [1]; -1.21 in [2]; -0.269 in test [3]; -0.443 in [4]; -0.0815 in [5]; -1.22 in test [7]. The ΔTm in test [8] was -2.2; in test [9], -0.355; in test [10] it was -0.858. In addition, the inhibition in test [6] is -6.31%; in test [11], 7.4%.
